# Results as given in ChEMBL document CHEMBL1145534 (2007).
# What was measured:
# Assay type in all cases: functional
# [1] = system: Corynebacterium amycolatum; experiment: Antimicrobial activity against Corynebacterium amycolatum at 0.12 ug/ml by broth microdilution method
# Corynebacterium jeikeium [2] = experiment: Antimicrobial activity against Corynebacterium jeikeium at 0.12 ug/ml by broth microdilution method
# Corynebacterium jeikeium [3] = experiment: Antimicrobial activity against Corynebacterium jeikeium at 0.25 ug/ml by broth microdilution method
# [4] = system: Corynebacterium pseudodiphtheriticum; experiment: Antimicrobial activity against Corynebacterium pseudodiphtheriticum at 0.25 ug/ml by broth microdilution method
# [5] = system: Corynebacterium pseudodiphtheriticum; experiment: Antimicrobial activity against Corynebacterium pseudodiphtheriticum at 0.5 ug/ml by broth microdilution method
# Enterococcus avium [6] = experiment: Antimicrobial activity against Enterococcus avium at <= 0.06 ug/ml by broth microdilution method
# Enterococcus avium [7] = experiment: Antimicrobial activity against Enterococcus avium at 2 ug/ml by broth microdilution method
# Enterococcus avium [8] = experiment: Antimicrobial activity against Enterococcus avium at 4 ug/ml by broth microdilution method
# [9] = system: Enterococcus casseliflavus; experiment: Antimicrobial activity against Enterococcus casseliflavus at <= 0.06 ug/ml by broth microdilution method
# [10] = system: Enterococcus casseliflavus; experiment: Antimicrobial activity against Enterococcus casseliflavus at 4 ug/ml by broth microdilution method
# Streptococcus = experiment: Antimicrobial activity against beta hemolytic Streptococci group G at 0.25 ug/ml by broth microdilution method
# Enterococcus durans = experiment: Antimicrobial activity against Enterococcus durans at 2 ug/ml by broth microdilution method
# Aerococcus [11] = experiment: Antimicrobial activity against Aerococcus spp. at 0.25 ug/ml by broth microdilution method
# Bacillus sp. [12] = experiment: Antimicrobial activity against Bacillus spp. at 0.12 ug/ml by broth microdilution method; conditions: Bacillus sp. (in: firmicutes)
# Bacillus sp. [13] = experiment: Antimicrobial activity against Bacillus spp. at 1 ug/ml by broth microdilution method; conditions: Bacillus sp. (in: firmicutes)
# Bacillus cereus = experiment: Antimicrobial activity against Bacillus cereus at <= 0.06 ug/ml by broth microdilution method
# Corynebacterium sp. [14] = experiment: Antimicrobial activity against Corynebacterium spp. at <= 0.06 ug/ml by broth microdilution method
# Corynebacterium sp. [15] = experiment: Antimicrobial activity against Corynebacterium spp. at 0.5 ug/ml by broth microdilution method
# Rothia mucilaginosa [16] = experiment: Antimicrobial activity against Rothia mucilaginosa by broth microdilution method
# Streptococcus salivarius [17] = experiment: Antimicrobial activity against viridans group Streptococcus salivarius at 0.25 ug/ml by broth microdilution method
# Streptococcus anginosus = experiment: Antimicrobial activity against viridans group Streptococcus anginosus at 0.25 ug/ml by broth microdilution method
# Enterococcus gallinarum = experiment: Antimicrobial activity against Enterococcus gallinarum at 0.5 ug/ml by broth microdilution method
# Enterococcus hirae [18] = experiment: Antimicrobial activity against Enterococcus hirae at <= 0.06 ug/ml by broth microdilution method
# Enterococcus hirae [19] = experiment: Antimicrobial activity against Enterococcus hirae at 0.25 ug/ml by broth microdilution method
# Enterococcus raffinosus = experiment: Antimicrobial activity against Enterococcus raffinosus at 2 ug/ml by broth microdilution method
# Listeria monocytogenes [20] = experiment: Antimicrobial activity against Listeria monocytogenes at 0.12 ug/ml by broth microdilution method
# Listeria monocytogenes [21] = experiment: Antimicrobial activity against Listeria monocytogenes at 2 ug/ml by broth microdilution method
# Rothia mucilaginosa [22] = experiment: Antimicrobial activity against Rothia mucilaginosa at 0.12 ug/ml by broth microdilution method
# Rothia mucilaginosa [23] = experiment: Antimicrobial activity against Rothia mucilaginosa at 0.25 ug/ml by broth microdilution method
# Aerococcus [24] = experiment: Antimicrobial activity against Aerococcus spp. by broth microdilution method
# Corynebacterium sp. [25] = experiment: Antimicrobial activity against Corynebacterium spp. by broth microdilution method
# [26] = system: Corynebacterium amycolatum; experiment: Antimicrobial activity against Corynebacterium amycolatum by broth microdilution method
# Enterococcus avium [27] = experiment: Antimicrobial activity against Enterococcus avium by broth microdilution method
# [28] = system: Enterococcus casseliflavus; experiment: Antimicrobial activity against Enterococcus casseliflavus by broth microdilution method
# Listeria monocytogenes [29] = experiment: Antimicrobial activity against Listeria monocytogenes by broth microdilution method
# Streptococcus oralis [30] = experiment: Antimicrobial activity against viridans group Streptococcus oralis at <= 0.06 ug/ml by broth microdilution method
# Streptococcus oralis [31] = experiment: Antimicrobial activity against viridans group Streptococcus oralis at 0.5 ug/ml by broth microdilution method
# Streptococcus oralis [32] = experiment: Antimicrobial activity against viridans group Streptococcus oralis at 1 ug/ml by broth microdilution method
# Streptococcus oralis [33] = experiment: Antimicrobial activity against viridans group Streptococcus oralis at 2 ug/ml by broth microdilution method
# [34] = system: Streptococcus parasanguinis; experiment: Antimicrobial activity against viridans group Streptococcus parasanguis at 0.12 ug/ml by broth microdilution method
# Streptococcus equinus [35] = experiment: Antimicrobial activity against viridans group Streptococcus bovis at 0.5 ug/ml by broth microdilution method
# Streptococcus equinus [36] = experiment: Antimicrobial activity against viridans group Streptococcus bovis at 2 ug/ml by broth microdilution method
# [37] = system: Streptococcus constellatus; experiment: Antimicrobial activity against viridans group Streptococcus constellatus at 0.5 ug/ml by broth microdilution method
# [38] = system: Streptococcus constellatus; experiment: Antimicrobial activity against viridans group Streptococcus constellatus at 1 ug/ml by broth microdilution method
# [39] = system: Streptococcus constellatus; experiment: Antimicrobial activity against viridans group Streptococcus constellatus at 2 ug/ml by broth microdilution method
# [40] = system: Streptococcus intermedius; experiment: Antimicrobial activity against viridans group Streptococcus intermedius at 0.5 ug/ml by broth microdilution method
# [41] = system: Streptococcus intermedius; experiment: Antimicrobial activity against viridans group Streptococcus intermedius at 1 ug/ml by broth microdilution method
# Streptococcus mitis [42] = experiment: Antimicrobial activity against viridans group Streptococcus mitis at 0.5 ug/ml by broth microdilution method
# Streptococcus mutans = experiment: Antimicrobial activity against viridans group Streptococcus mutans at <= 0.06 ug/ml by broth microdilution method
# Streptococcus sanguinis = experiment: Antimicrobial activity against viridans group Streptococcus sanguinis at 2 ug/ml by broth microdilution method
# [43] = system: Streptococcus vestibularis; experiment: Antimicrobial activity against viridans group Streptococcus vestibularis at 0.5 ug/ml by broth microdilution method
# [44] = system: Streptococcus vestibularis; experiment: Antimicrobial activity against viridans group Streptococcus vestibularis at 1 ug/ml by broth microdilution method
# Streptococcus equinus [45] = experiment: Antimicrobial activity against viridans group Streptococcus bovis by broth microdilution method
# Streptococcus mitis [46] = experiment: Antimicrobial activity against viridans group Streptococcus mitis by broth microdilution method
# [47] = system: Streptococcus parasanguinis; experiment: Antimicrobial activity against viridans group Streptococcus parasanguis by broth microdilution method
# Streptococcus salivarius [48] = experiment: Antimicrobial activity against viridans group Streptococcus salivarius by broth microdilution method
smiles,measurement,setting,value
CC(=O)NC[C@H]1CN(c2ccc(N3CCOCC3)c(F)c2)C(=O)O1 [LINEZOLID],inhibition at 0.12 µg/mL,[1],27.3%
same,inhibition at 0.12 µg/mL,Corynebacterium jeikeium [2],5.1%
same,inhibition at 0.25 µg/mL,Corynebacterium jeikeium [3],67.8%
same,inhibition at 0.25 µg/mL,[4],36.4%
same,inhibition at 0.5 µg/mL,[5],90.9%
same,Inhibition,Enterococcus avium [6],0%
same,inhibition at 2 µg/mL,Enterococcus avium [7],99.1%
same,inhibition at 4 µg/mL,Enterococcus avium [8],100%
same,Inhibition,[9],0%
same,inhibition at 4 µg/mL,[10],100%
same,inhibition at 0.25 µg/mL,Streptococcus,0.8%
same,inhibition at 2 µg/mL,Enterococcus durans,100%
same,inhibition at 0.25 µg/mL,Aerococcus [11],4.5%
same,inhibition at 0.12 µg/mL,Bacillus sp. [12],0.7%
same,inhibition at 1 µg/mL,Bacillus sp. [13],97.2%
same,Inhibition,Bacillus cereus,1.7%
same,Inhibition,Corynebacterium sp. [14],2.1%
same,inhibition at 0.5 µg/mL,Corynebacterium sp. [15],92.4%
same,MIC50,Rothia mucilaginosa [16],0.5 µg/mL
same,MIC90,Rothia mucilaginosa [16],1 µg/mL
same,inhibition at 0.25 µg/mL,Streptococcus salivarius [17],3.3%
same,inhibition at 0.25 µg/mL,Streptococcus anginosus,7.7%
same,inhibition at 0.5 µg/mL,Enterococcus gallinarum,1.7%
same,Inhibition,Enterococcus hirae [18],0%
same,inhibition at 0.25 µg/mL,Enterococcus hirae [19],0%
same,inhibition at 2 µg/mL,Enterococcus raffinosus,100%
same,inhibition at 0.12 µg/mL,Listeria monocytogenes [20],0%
same,inhibition at 2 µg/mL,Listeria monocytogenes [21],100%
same,inhibition at 0.12 µg/mL,Rothia mucilaginosa [22],5.6%
same,inhibition at 0.25 µg/mL,Rothia mucilaginosa [23],16.7%
same,MIC50,Aerococcus [24],1 µg/mL
same,MIC90,Aerococcus [24],2 µg/mL
same,MIC50,Corynebacterium sp. [25],0.25 µg/mL
same,MIC90,Corynebacterium sp. [25],0.5 µg/mL
same,MIC50,[26],0.25 µg/mL
same,MIC90,[26],0.25 µg/mL
same,MIC50,Enterococcus avium [27],1 µg/mL
same,MIC90,Enterococcus avium [27],2 µg/mL
same,MIC50,[28],2 µg/mL
same,MIC90,[28],2 µg/mL
same,MIC50,Listeria monocytogenes [29],2 µg/mL
same,MIC90,Listeria monocytogenes [29],2 µg/mL
same,Inhibition,Streptococcus oralis [30],0.7%
same,inhibition at 0.5 µg/mL,Streptococcus oralis [31],34.5%
same,inhibition at 1 µg/mL,Streptococcus oralis [32],96.4%
same,inhibition at 2 µg/mL,Streptococcus oralis [33],99.3%
same,inhibition at 0.12 µg/mL,[34],0%
same,inhibition at 0.5 µg/mL,Streptococcus equinus [35],23.8%
same,inhibition at 2 µg/mL,Streptococcus equinus [36],100%
same,inhibition at 0.5 µg/mL,[37],42.7%
same,inhibition at 1 µg/mL,[38],98.9%
same,inhibition at 2 µg/mL,[39],100%
same,inhibition at 0.5 µg/mL,[40],24.2%
same,inhibition at 1 µg/mL,[41],87.9%
same,inhibition at 0.5 µg/mL,Streptococcus mitis [42],33.4%
same,Inhibition,Streptococcus mutans,0%
same,inhibition at 2 µg/mL,Streptococcus sanguinis,100%
same,inhibition at 0.5 µg/mL,[43],36.4%
same,inhibition at 1 µg/mL,[44],100%
same,MIC50,Streptococcus equinus [45],1 µg/mL
same,MIC90,Streptococcus equinus [45],2 µg/mL
same,MIC50,Streptococcus mitis [46],1 µg/mL
same,MIC90,Streptococcus mitis [46],1 µg/mL
same,MIC50,[47],0.5 µg/mL
same,MIC90,[47],1 µg/mL
same,MIC50,Streptococcus salivarius [48],1 µg/mL
same,MIC90,Streptococcus salivarius [48],1 µg/mL
